Measured values: patent publication US4587046A, “Drug-carrier conjugates” (The Regents of the University of California, priority 1982, dated 1986)
Square brackets hold non-standard residues; d marks the D form. Peptide text beside a SMILES is read from it. * marks the point of attachment. Phe(4-NH2) = Nc1ccc(C[C@H](N)C(=O)O)cc1; X1 = CC(CCCCC(=O)*)NCC(O)c1ccc(O)c(O)c1; Nva(5-OH) = N[C@@H](CCCO)C(=O)O; Boc = CC(C)(C)OC(=O)*

How the values were obtained:
S49 cells = assay: wild type S49 cell assay, cyclic AMP accumulation (relative beta adrenergic activity); format: cell-based; details: in vitro, ratio of KA for isoproterenol to KA for the compound, isoproterenol = 1
Method: The biological activity of the conjugates of the invention was tested in a wild type S49 cell assay. The assay is indicative of the relative beta adrenergic activity of the compound. The activity of each conjugate tested was compared to the activity of isoproterenol as the base standard. In the test, S49 cells were centrifuged and then resuspended (2 to 2.5×10^6 cells per ml.) in Dulbecco's modified Eagle medium (13.3 g per liter) and 20 mM Hepes (pH 7.4)+0.1% bovine serum albumin. The S49 suspensions were incubated at 37° C. for 10 minutes without the conjugate and then added to tubes with or without the conjugate for an additional 6 minutes. The reaction was stopped by cooling on ice. Incubation without the conjugates present established a base line. After isolation of a pellet of cells by centrifugation they were resuspended and boiled. Aliquots were then used for the competitive binding assay for cyclic AMP described by Gilman in the Procedings of the National Academy of Sciences USA 67, 305-312 (1970). Results were plotted as pmol cyclic AMP accumulated per 10^7 cells in excess of base line as a function of the log of the concentration of the analog. | ^a Biological activity was measured by cyclic AMP accumulation in S49 | cells. Relative activity is expressed as the ration of KA for | isoproterenol to KA for the compound.

rat blood pressure = assay: in vivo reduction of rat blood pressure after injection into the femoral vein; parameters: species or system male Sprague-Dawley rats; details: 0.001 to 10.0 mg/kg, ratio of molar ED50 of isoproterenol to molar ED50 of the compound (dose that reduces rat blood pressure by 50%)
Method: In addition to the in vitro testing set forth above, in vivo testing was also conducted on a number of conjugates of the invention. The tests were conducted by injecting various doses of the test conjugate into the femoral vein of rats and thereafter recording changes in heart rate, arterial pulse pressure and mean pressure.
More specifically, male Sprague-Dawley rats weighing 280-350 g had their femoral arteries connected to a Statham P-23 pressure transducer, which was in turn recorded on a Beckman Dynograph model R511A. Venus cannula were inserted in the femoral veins. Two syringes were attached to the veins via a 3-way stopcock. One syringe contained heparinized saline (40 units/ml) while the other contained the conjugate to be tested.
All cannulas were periodically flushed with the heparinized saline to prevent clots from forming. After the blood pressure and heart rate had stabilized, a volume of heparinized saline corresponding to the volume of drug conjugate the animal was to receive, was injected, and the response observed. Then various doses of the test drug conjugate were injected with a minimum interval of ten minutes between doses. The dose range was from 0.001 to 10.0 mg/kg, with the doses always being administered in increasing amounts. From the drug injections, a dose-response curve was obtained. The response curves were then compared to the animals' response to isoproterenol administered under the same conditions. Table 3 below presents the results of these in vivo tests:
^a Biological activity in vivo was measured as the effective dose tha
reduces rat blood pressure by 50%. Relative activity is expressed as the
ratio of the molar ED50 of isoproterenol to the molar ED50 of […]

CC(=O)N[C@@H](Cc1ccc(NC(=O)CCCCC(C)NCC(O)c2ccc(O)c(O)c2)cc1)C(=O)NCCCO (some centres unmarked) [A] was tested, and the “Activity relative to isoproterenol” value (S49 cells) was 9.0 × 10^-2.
CC(=O)N[C@H](Cc1ccc(NC(=O)CCCCC(C)NCC(O)c2ccc(O)c(O)c2)cc1)C(=O)NCCCO (some centres unmarked) [B] was tested, and the “Activity relative to isoproterenol” value (S49 cells) was 4.0 × 10^-1.
In the case of CC(=O)N[C@@H](Cc1ccc(NC(=O)CCCCC(C)NCC(O)c2ccc(O)c(O)c2)cc1)C(=O)NCC(=O)O (some centres unmarked) [C], the “Activity relative to isoproterenol” value (S49 cells) is reported as 4.4 × 10^-1.
CNC(=O)CNC(=O)[C@H](Cc1ccc(NC(=O)CCCCC(C)NCC(O)c2ccc(O)c(O)c2)cc1)NC(C)=O (stereo partly drawn) [D, N^α -Acetyl-p-[6-(β-3',4-Dihydroxyphenyl-β-Hydroxy)-Ethylamino-n-Heptanoylamino]-L-Phenylalanyl-Glycyl-Methylamide] was tested, and the “Activity relative to isoproterenol” value (S49 cells) was 1.1.
With CNC(=O)CNC(=O)[C@H](Cc1ccc(NC(=O)CCCCC(C)NCC(O)c2ccc(O)c(O)c2)cc1)NC(=O)OC(C)(C)C (stereo partly drawn) [E, N^α -t-Butyloxycarbonyl-p-[6-(β-3',4'-Dihydroxyphenyl-β-Hydroxy)-Ethylamino-n-Heptanoylamino]-L-Phenylalanyl-Glycyl-Methylamide] the “Activity relative to isoproterenol” value (S49 cells) was 4.1 and the “In Vivo Activity Relative to Isoproterenol” value (rat blood pressure) was 3.74.
CNC(=O)CNC(=O)[C@@H](N)Cc1ccc(NC(=O)CCCCC(C)NCC(O)c2ccc(O)c(O)c2)cc1 (some centres unmarked) [F] was tested, and the “Activity relative to isoproterenol” value (S49 cells) was 1.3 × 10^-4.
For CNC(=O)[C@H](Cc1ccc(NC(=O)CCCCC(C)NCC(O)c2ccc(O)c(O)c2)cc1)NC(=O)CNC(=O)OC(C)(C)C (some centres unmarked) [G], the “Activity relative to isoproterenol” value (S49 cells) was 6.8 × 10^-1 and the “In Vivo Activity Relative to Isoproterenol” value (rat blood pressure) was “.92”.
CNC(=O)CC[C@H](NC(C)=O)C(=O)N[C@@H](Cc1ccc(NC(=O)CCCCC(C)NCC(O)c2ccc(O)c(O)c2)cc1)C(=O)NCC(=O)NC (some centres unmarked) [H] was tested, and the “Activity relative to isoproterenol” value (S49 cells) was 3.7 × 10^-6 and the “In Vivo Activity Relative to Isoproterenol” value (rat blood pressure) was 1.77.
In the case of CNC(=O)CNC(=O)[C@H](Cc1ccc(NC(=O)CCCCC(C)NCC(O)c2ccc(O)c(O)c2)cc1)NC(=O)[C@H](CCCO)NC(C)=O (some centres unmarked) [I], the “Activity relative to isoproterenol” value (S49 cells) is reported as 8.0 × 10^-5 and the “In Vivo Activity Relative to Isoproterenol” value (rat blood pressure) is reported as 1.48.
With CNC(=O)CNC(=O)[C@H](Cc1ccc(NC(=O)CCCCC(C)NCC(O)c2ccc(O)c(O)c2)cc1)NC(=O)[C@H](CCCNC(N)=O)NC(C)=O (some centres unmarked) [J] the “In Vivo Activity Relative to Isoproterenol” value (rat blood pressure) was “.79”.
CNC(=O)CNC(=O)[C@H](Cc1ccc(NC(=O)CCCCC(C)NCC(O)c2ccc(O)c(O)c2)cc1)NC(=O)[C@H](CCCNC(N)=O)NC(=O)OC(C)(C)C (some centres unmarked) [K] was tested, and the “Activity relative to isoproterenol” value (S49 cells) was 3.8 × 10^-5 and the “In Vivo Activity Relative to Isoproterenol” value (rat blood pressure) was “.22”.
For CNC(=O)CC[C@H](NC(C)=O)C(=O)N[C@@H](Cc1ccc(NC(=O)CCCC(C)NCC(O)c2ccc(O)c(O)c2)cc1)C(=O)N[C@@H](CCC(=O)NC)C(=O)NC (some centres unmarked) [L], the “Activity relative to isoproterenol” value (S49 cells) was 4.5 × 10^-6.
CNC(=O)CC[C@H](NC(C)=O)C(=O)N[C@@H](Cc1ccc(NC(=O)CCCCC(C)NCC(O)c2ccc(O)c(O)c2)cc1)C(=O)N[C@@H](CCC(=O)NC)C(=O)NC (stereo partly drawn) [M, N^α -Acetyl-N'-Methyl-L-Glutaminyl-p-[6-(β-3',4'-Dihydroxyphenyl-β-Hydroxy)-Ethylamino-n-Heptanoylamino]-L-Phenylalanyl-N'-Methyl-L-Glutaminyl-Methylamide] was tested, and the “Activity relative to isoproterenol” value (S49 cells) was 2.3 × 10^-5.
In the case of CNC(=O)CC[C@H](NC(C)=O)C(=O)N[C@@H](Cc1ccc(NC(=O)CCCCCC(C)NCC(O)c2ccc(O)c(O)c2)cc1)C(=O)N[C@@H](CCC(=O)NC)C(=O)NC (some centres unmarked) [N], the “Activity relative to isoproterenol” value (S49 cells) is reported as 8.6 × 10^-6.
In the case of CNC(=O)CNC(=O)[C@H](Cc1ccc(NC(=O)CCCCC(C)NCC(O)c2ccc(O)c(O)c2)cc1)NC(=O)[C@H](CCCO)NC(=O)[C@H](CCCO)NC(=O)[C@H](CCCO)NC(=O)OC(C)(C)C (some centres unmarked) [O] (Boc-[Nva(5-OH)][Nva(5-OH)][Nva(5-OH)][Phe(4-NH2)](X1)G-NHMe), the “Activity relative to isoproterenol” value (S49 cells) is reported as 1.0 and the “In Vivo Activity Relative to Isoproterenol” value (rat blood pressure) is reported as “.76”.
In the case of CNC(=O)CNC(=O)[C@H](CCCO)NC(=O)[C@H](CCCO)NC(=O)[C@H](CCCO)NC(=O)[C@H](Cc1ccc(NC(=O)CCCCC(C)NCC(O)c2ccc(O)c(O)c2)cc1)NC(=O)OC(C)(C)C (some centres unmarked) [P] (Boc-[Phe(4-NH2)](X1)[Nva(5-OH)][Nva(5-OH)][Nva(5-OH)]G-NHMe), the “Activity relative to isoproterenol” value (S49 cells) is reported as 7.9 × 10^-1 and the “In Vivo Activity Relative to Isoproterenol” value (rat blood pressure) is reported as “.59”.
